# Measurements as given in patent publication US5236815A, “Class of masked stabilizers in photographic materials or developing solutions” (priority 1991, dated 1993).
# Counter-ions that a name gives are not always drawn. Like-named read-outs stand apart in the source and are kept apart here.
# How the values were obtained:
# [1] = for solubility at room temperature: water
# [2] = alcoholic solution of 5-nitroindazole vs aqueous solution of I-2; in words
# Protocol: A control composition (A) containing 100 g of inert gelatin in 1600 ml of water was prepared. The solution further contained matting agents and anti-halo dyes. In a second control composition (8) 300 ml of water was replaced by 300 ml of a 1% alcoholic solution of 5-nitroindazole. […] In each sample pH was adjusted to 6.5.
# [3] = type: physicochemical; conditions: pH 11.5
# Protocol: To said basic composition were added 0.46 mmole/l of water soluble 5-nitroindazole precursors according to the invention as specified in table 1 below. In a comparison developer 0.46 mmole of 5-nitroindazole (5-NI) was added per liter. […] Therefore a second comparison developer sample was included in which 5-nitroindazole was first dissolved in 30 ml of N-methyl-pyrrolidone (part B) and then added to the solution, replacing 30 ml of water. In each sample the pH was readjusted to 11.5 with sodium hydroxide.
SMILES,instability problems in gelatineous compositions [2],solubility at room temperature [1] [g/100 ml],further results
O=C(c1ccccc1S(=O)(=O)[O-])n1ncc2cc([N+](=O)[O-])ccc21.[K+],can be overcome,–,solubility at room temperature ([1]; room temperature): 1.7 g/100 ml
Cc1ccc2[nH]nnc2c1 [5-methylbenzotriazole],–,–,"solubility in water ([1]; background section, no temperature given): 0.5 g/100 ml of water"
O=[N+]([O-])c1ccc2[nH]ncc2c1 [5-nitroindazole],instability problems,–,solubility in developer solution [3]: only slightly soluble; solubility in water [1]: 0.02 g/100 ml of water

# Now from value to compound, other results behind:
instability problems in gelatineous compositions [2],solubility at room temperature [1] [g/100 ml],SMILES,further results
–,5.8,"O=C(c1ccccc1S(=O)(=O)O)n1nnc2ccccc21 [Compound I-3, 1-(2-sulphonatobenzoyl)-benzotriazole triethylamine salt]",–
–,1.3,c1ccc2[nH]nnc2c1 [benzotriazole],–
